Measurements published in US11384060B2, “Amide compounds and use thereof” (ALPHALA CO., LTD., priority 2017, dated 2022).
Like-named read-outs stand apart in the source and are kept apart here.

What was measured:
[1] = biological target: T1, glucagon receptor (GCGR) overexpressed CHO-K1 cells or human primary hepatocytes (Homo sapiens, UniProt P47871); experiment: Glucagon cAMP inhibition assay (Cisbio cAMP Dynamic 2 HTRF); assay type: cell-based
T1 construct: expressed in transfected cells; host or cells: GCGR overexpressed CHO-K1 cells or human primary hepatocytes (endogenous receptor)
T1 sequence (P47871 26-477): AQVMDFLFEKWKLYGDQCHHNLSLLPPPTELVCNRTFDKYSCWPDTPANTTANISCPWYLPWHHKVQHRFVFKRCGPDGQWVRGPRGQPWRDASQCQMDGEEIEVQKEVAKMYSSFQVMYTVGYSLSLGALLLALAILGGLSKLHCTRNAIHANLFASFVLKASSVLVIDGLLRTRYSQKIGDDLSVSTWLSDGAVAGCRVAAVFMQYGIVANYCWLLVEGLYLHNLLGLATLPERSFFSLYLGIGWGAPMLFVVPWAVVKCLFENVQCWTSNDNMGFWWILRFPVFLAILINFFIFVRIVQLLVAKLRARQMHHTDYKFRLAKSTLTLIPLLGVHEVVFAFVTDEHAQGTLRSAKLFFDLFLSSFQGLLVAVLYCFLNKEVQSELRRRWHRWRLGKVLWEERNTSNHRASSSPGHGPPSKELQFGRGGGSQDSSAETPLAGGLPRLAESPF
In short: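 GCGR-overexpressing CHO-K1 cells or human primary hepatocytes in HBSS with 0.1% BSA and 800 nM IBMX, pre-incubated 30 min with serially diluted compounds (1% DMSO final), then stimulated 30 min at room temperature with glucagon at its EC50. cAMP measured by HTRF after 60 min lysis; IC50 by non-linear regression.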

glucagon receptor (GCGR) = biological target: T2, glucagon receptor (GCGR) (Homo sapiens, UniProt P47871); experiment: I125-glucagon binding assay (competition, GCGR membrane fractions)
T2 construct: expressed in transfected cells; host or cells: CHO-K1 cells overexpressing GCGR (membrane fractions)
T2 sequence (P47871 26-477): as above
In short: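 Membranes from CHO-K1 cells overexpressing GCGR, 7.5 μg/well in 50 mM Tris pH 7.4 with 0.5% BSA, were preincubated 5 min with serially diluted compounds, then given 0.0625 nM final I^125-glucagon for 30 min at 25° C. Bound label was filtered on PEI-coated GF/B and counted; IC50 by non-linear regression.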

[2] = inhibition of glucagon (EC50 concentration) induced cAMP production
[3] = competition with I125-glucagon 0.0625 nM, membrane fractions of GCGR overexpressed CHO-K1 cells

## Cc1nc(OC[C@H](CC(C)C)Nc2ccc(C(=O)NCCC(=O)O)cc2)ccc1-c1ccc(Cl)cc1Cl [Compound 18-8, (S)-3-(4-((1-((5-(2,4-dichlorophenyl)-6-methylpyridin-2-yl)oxy)-4-methylpentan-2-yl)amino)benzamido)propanoic Acid]
[1]
  IC50 cAMP: 0.1225 µM
Glucagon receptor (GCGR)
  IC50: 0.049 µM

## CC(C)[C@@H](COc1ccc(-c2ccc(C(F)(F)F)cc2)cc1)Nc1ccc(C(=O)NCCC(=O)O)cn1 [Compound 4-1, (S)-3-(6-((3-methyl-1-((4′-(trifluoromethyl)-[1,1′-biphenyl]-4-yl)oxy)butan-2-yl)amino)nicotinamido)propanoic Acid]
[1]; [2]
  IC50 cAMP: 0.6269 µM
Glucagon receptor (GCGR); [3]
  IC50: 0.369 µM

## CCCC[C@@H](COc1ccc(-c2ccc(C(F)(F)F)cc2)cc1)Nc1ccc(C(=O)NCCC(=O)O)cc1 [Compound 1-15, (S)-3-(4-((1-((4′-(trifluoromethyl)-[1,1′-biphenyl]-4-yl)oxy)hexan-2-yl)amino)benzamido)propanoic Acid]
[1]; [2]
  IC50 cAMP: 0.3388 µM
Glucagon receptor (GCGR); [3]
  IC50: 0.211 µM

## CC[C@H](C)[C@@H](COc1nnc(-c2ccc(C(F)(F)F)cc2Cl)o1)Nc1ccc(C(=O)NCCC(=O)O)cc1 [Compound 22-19]
[1]
  IC50 cAMP: >30 µM
Glucagon receptor (GCGR)
  IC50: > 30 µM

## Cc1cc(C)c(-c2ccc(C[C@H](Nc3ccc(C(=O)NCCC(=O)O)cc3)c3nnc(-c4ccc(C(C)(C)C)cc4)o3)cc2)c(C)c1 [Compound 20-5, (S)-3-(4-((1-(5-(4-(tert-butyl)phenyl)-1,3,4-oxadiazol-2-yl)-2-(2′,4′,6′-trimethyl-[1,1′-biphenyl]-4-yl)ethyl)amino)benzamido)propanoic Acid]
[1]
  IC50 cAMP: >30 µM
Glucagon receptor (GCGR)
  IC50: 4.86 µM

## CCOC(=O)CCNC(=O)c1ccc(N[C@@H](Cc2ccc3ccccc3c2)C(=O)Nc2ccc(-c3cc4ccccc4o3)cc2)cc1 [Compound 23-21, Ethyl (S)-3-(4-((1-((4-(benzofuran-2-yl)phenyl)amino)-3-(naphthalen-2-yl)-1-oxopropan-2-yl)amino)benzamido)propanoate]
[1]; uM
  IC50 cAMP: >10 µM
Glucagon receptor (GCGR); uM
  IC50: > 10 µM

## COC(=O)CCNC(=O)c1ccc(N[C@@H](CC(C)C)C(=O)Nc2ccc(-c3cc4ccccc4[nH]3)cc2)cc1 [Compound 23-28, Methyl (S)-3-(4-((1-((4-(1H-indol-2-yl)phenyl)amino)-4-methyl-1-oxopentan-2-yl)amino)benzamido)propanoate]
[1]
  IC50 cAMP: 0.179 µM
Glucagon receptor (GCGR)
  IC50: 6.94 µM

## O=C(O)CCNC(=O)c1ccc(N[C@H](Cc2ccc(-c3cc4ccccc4o3)cc2)C(=O)Nc2ccc(C(F)(F)F)cc2)cc1 [Compound 24-20, (R)-3-(4-((3-(4-(benzofuran-2-yl)phenyl)-1-oxo-1-((4-(trifluoromethyl)phenyl)amino)propan-2-yl)amino)benzamido)propanoic Acid]
[1]
  IC50 cAMP: 1.947 µM
Glucagon receptor (GCGR)
  IC50: 0.193 µM

## CC(C)[C@@H](COc1ccc(-c2cc3ccccc3o2)c(Cl)c1)Nc1ccc(C(=O)NCc2nnn[nH]2)cc1 [Compound 3-5, (S)—N-((1H-tetrazol-5-yl)methyl)-4-((1-(4-(benzofuran-2-yl)-3-chlorophenoxy)-3-methylbutan-2-yl)amino)benzamide]
[1]; [2]
  IC50 cAMP: 1.863 µM
Glucagon receptor (GCGR); [3]
  IC50: 0.117 µM

## CC[C@H](C)[C@@H](COc1ccc(-c2ccc(C(F)(F)F)cc2Cl)nn1)Nc1ccc(C(=O)NCCC(=O)O)cc1 [Compound 17-4, 3-(4-(((2S,3S)-1-((6-(2-chloro-4-(trifluoromethyl)phenyl)pyridazin-3-yl)oxy)-3-methylpentan-2-yl)amino)benzamido)propanoic Acid]
[1]; [2]
  IC50 cAMP: 1.266 µM
Glucagon receptor (GCGR); [3]
  IC50: 0.609 µM

## CC(C)[C@H](Nc1ccc(C(=O)NCCC(=O)O)cc1)C(=O)Nc1ccc(-c2cc3ccccc3o2)cc1 [Compound 23-33, (S)-3-(4-((1-((4-(benzofuran-2-yl)phenyl)amino)-3-methyl-1-oxobutan-2-yl)amino)benzamido)propanoic Acid]
[1]
  IC50 cAMP: 1.633 µM
Glucagon receptor (GCGR)
  IC50: 1.01 µM

## CCOC(=O)CCNC(=O)c1ccc(N[C@@H](Cc2cccc3ccccc23)C(=O)Nc2ccc(-c3cc4ccccc4o3)cc2)cc1 [Compound 23-13, Ethyl (S)-3-(4-((1-((4-(benzofuran-2-yl)phenyl)amino)-3-(naphthalen-1-yl)-1-oxopropan-2-yl)amino)benzamido)propanoate]
[1]; uM
  IC50 cAMP: >10 µM
Glucagon receptor (GCGR); uM
  IC50: > 10 µM

## CC(C)(C)c1ccc(NC(=O)[C@H](Cc2ccc3ccccc3c2)Nc2ccc(C(=O)NCCC(=O)O)cc2)cc1 [Compound 23-20, (S)-3-(4-((1-((4-(tert-butyl)phenyl)amino)-3-(naphthalen-2-yl)-1-oxopropan-2-yl)amino)benzamido)propanoic Acid]
[1]
  IC50 cAMP: 4.7 µM
Glucagon receptor (GCGR)
  IC50: 0.724 µM

## Cc1cc(OC[C@H](CC(C)C)Nc2ccc(C(=O)NCCC(=O)O)cc2)cc(C)c1-c1ccc(OC(F)(F)F)cc1 [Compound 2-3, (S)-3-(4-((1-((2,6-dimethyl-4′-(trifluoromethoxy)-[1,1′-biphenyl]-4-yl)oxy)-4-methylpentan-2-yl)amino)benzamido)propanoic Acid]
[1]; [2]
  IC50 cAMP: 0.493 µM
Glucagon receptor (GCGR); [3]
  IC50: 0.465 µM

## CCOC(=O)CCNC(=O)c1ccc(N[C@H](CC(C)C)C(=O)Nc2ccc(-c3cc4ccccc4o3)cc2)cc1 [Compound 24-1]
[1]
  IC50 cAMP: 1.5 µM
Glucagon receptor (GCGR); uM
  IC50: > 10 µM

## CC[C@H](C)[C@@H](COc1cc(C)c(-c2ccc(C(C)(C)C)cc2)c(C)c1)Nc1ccc(C(=O)NCCC(=O)O)cc1 [Compound 2-6, 3-(4-(((2S,3S)-1-((4′-(tert-butyl)-2,6-dimethyl-[1,1′-biphenyl]-4-yl)oxy)-3-methylpentan-2-yl)amino)benzamido)propanoic Acid]
[1]; [2]
  IC50 cAMP: 0.448 µM
Glucagon receptor (GCGR); [3]
  IC50: 0.067 µM

## CC(C)C[C@@H](COc1ccc(-c2ccc(Cl)cc2Cl)nn1)Nc1ccc(C(=O)NCCC(=O)O)cc1 [Compound 17-2, (S)-3-(4-((1-((6-(2,4-dichlorophenyl)pyridazin-3-yl)oxy)-4-methylpentan-2-yl)amino)benzamido)propanoic Acid]
[1]; [2]
  IC50 cAMP: 0.716 µM
Glucagon receptor (GCGR); [3]
  IC50: 0.139 µM

## CC[C@H](C)[C@@H](COc1nnc(-c2cc3ccccc3o2)o1)Nc1ccc(C(=O)NCCC(=O)O)cc1 [Compound 22-7, 3-(4-(((2S,3 S)-1-((5-(benzofuran-2-yl)-1,3,4-oxadiazol-2-yl)oxy)-3-methylpentan-2-yl)amino)benzamido)propanoic Acid]
[1]
  IC50 cAMP: >30 µM
Glucagon receptor (GCGR)
  IC50: > 30 µM

## CCCC[C@@H](COc1ccc(-c2ccc(C(F)(F)F)cc2F)cn1)Nc1ccc(C(=O)NCCC(=O)O)cc1 [Compound 15-26, (S)-3-(4-((1-((5-(2-fluoro-4-(trifluoromethyl)phenyl)pyridin-2-yl)oxy)hexan-2-yl)amino)benzamido)propanoic Acid]
[1]
  IC50 cAMP: 0.2066 µM
Glucagon receptor (GCGR)
  IC50: 0.228 µM

## CC(C)C[C@@H](COc1ccc(-c2ccc(C(F)(F)F)cc2Cl)nc1)Nc1ccc(C(=O)NCCC(=O)O)cc1 [Compound 10-18, (S)-3-(4-((1-((6-(2-chloro-4-(trifluoromethyl)phenyl)pyridin-3-yl)oxy)-4-methylpentan-2-yl)amino)benzamido)propanoic Acid]
[1]; [2]
  IC50 cAMP: 0.88 µM
Glucagon receptor (GCGR); [3]
  IC50: 0.234 µM

## CC(C)C[C@@H](COc1cc(F)c(-c2ccc(C(F)(F)F)cc2)c(F)c1)Nc1ccc(C(=O)NCCC(=O)O)cc1 [Compound 7-6, (S)-3-(4-((1-((2,6-difluoro-4′-(trifluoromethyl)-[1,1′-biphenyl]-4-yl)oxy)-4-methylpentan-2-yl)amino)benzamido)propanoic Acid]
[1]; [2]
  IC50 cAMP: 0.371 µM
Glucagon receptor (GCGR); [3]
  IC50: 0.144 µM
